Reference: patent publication US20240400575A1, “POLYCYCLIC COMPOUNDS AS SOLUBLE EPOXIDE HYDROLASE INHIBITORS” (Universitat De Barcelona, priority 2018, published 2024)

Target: T1, recombinant human sEH (hsEH) (Homo sapiens, UniProt P34913)
T1 construct: purchased Cayman Chemical 10011669
T1 sequence (P34913 1-555): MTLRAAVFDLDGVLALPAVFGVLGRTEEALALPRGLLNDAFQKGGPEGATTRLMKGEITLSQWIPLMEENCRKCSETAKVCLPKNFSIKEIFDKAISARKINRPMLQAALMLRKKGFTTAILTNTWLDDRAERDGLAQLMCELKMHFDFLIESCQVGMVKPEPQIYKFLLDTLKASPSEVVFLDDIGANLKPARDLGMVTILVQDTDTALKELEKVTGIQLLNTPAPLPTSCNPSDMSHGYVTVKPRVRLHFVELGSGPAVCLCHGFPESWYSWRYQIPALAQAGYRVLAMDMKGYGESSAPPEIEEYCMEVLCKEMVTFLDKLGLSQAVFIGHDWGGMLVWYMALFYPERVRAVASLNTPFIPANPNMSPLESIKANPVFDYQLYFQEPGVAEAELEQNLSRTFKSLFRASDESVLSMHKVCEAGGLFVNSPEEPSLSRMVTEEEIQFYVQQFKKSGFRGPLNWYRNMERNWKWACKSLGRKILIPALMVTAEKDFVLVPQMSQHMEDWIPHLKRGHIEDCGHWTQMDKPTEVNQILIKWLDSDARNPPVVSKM
Test: In vitro determination of sEH inhibition activity (fluorescent assay, PHOME substrate)
Type: biochemical
Conditions: fluorescence, Bis/Tris HCl pH 7.0 with 0.1 mg/mL BSA
Method: Add 5 μL of DMSO to background and positive control wells, and then add 5 μL of inhibitor solution in inhibitor wells. Add 5 μL of the solution of hsEH to the positive control and inhibitor wells and stir the mixture. Prepare a 1/21 dilution of the solution of PHOME with assay buffer according to final volume required, and then add 105 μL of each well. Shake carefully the plate for 10 seconds and incubate for 5 minutes at room temperature. […] The intensity of fluorescence was used to analyze and calculate the IC50 values. Results were obtained by regression analysis from at least three data points in a linear region of the curve. IC50 values are average of minimum three independent replicates.

| IC50 [nM] | SMILES |
| --- | --- |
| 100 to 1000 | CC12CC3CC(NC(=S)Nc4ccc(C(F)(F)F)cc4)(CC(C1)c1ccccc13)C2 [Example 35, 1-(9-methyl-5,6,8,9,10,11-hexahydro-7H-5,9:7,11-dimethanobenzo[9]annulen-7-yl)-3-(4-(trifluoromethyl)phenyl)thiourea] |
| 100 to 1000 | CC(=O)N1CCC(NC(=O)NC23CC4CC(C)(CC(C2)c2ccccc24)O3)CC1 [Example 36, 1-(1-acetylpiperidin-4-yl)-3-(5-methyl-1,5,6,7-tetrahydro-1,5:3,7-dimethanobenzo[e]oxonin-3(2H)-yl)urea] |
| 10 to 50 | CC12CC3CC(NC(=O)NC4CCC(Oc5ccc(C(=O)O)cc5)CC4)(CC(C1)c1ccccc13)O2 (centres unmarked) [Example 43, 4-(((1r,4r)-4-(3-(5-methyl-1,5,6,7-tetrahydro-1,5:3,7-dimethanobenzo [e]oxonin-3(2H)-yl)ureido)cyclohexyl)oxy)benzoic acid] |
| < 10 | CC12CC3CC(NC(=O)NC4CCC(Oc5ccc(C(=O)O)cc5)CC4)(CC(C1)c1ccccc13)C2 (centres unmarked) [Example 44, 4-(((1r,4r)-4-(3-(9-methyl-5,6,8,9,10,11-hexahydro-7H-5,9:7,11-dimethanobenzo[9]annulen-7-yl)ureido)cyclohexyl)oxy)benzoic acid] |
| < 10 | CC12CC3CC(NC(=O)NC4CCN(Cc5ccccc5)CC4)(CC(C1)c1ccccc13)C2 [Example 48, 1-(1-benzylpiperidin-4-yl)-3-(9-methyl-5,6,8,9,10,11-hexahydro-7H-5,9:7,11-dimethanobenzo[9]annulen-7-yl)urea] |
| < 10 | CC(=O)c1ccc2c(c1)C1CC3(C)CC2CC(NC(=O)NC2CCN(C(C)=O)CC2)(C1)C3 (centres unmarked) [Example 51, 1-(2-acetyl-9-methyl-5,6,8,9,10,11-hexahydro-7H-5,9:7,11-dimethano-benzo[9]annulen-7-yl)-3-(1-acetylpiperidin-4-yl)urea] |
| < 10 | CC(=O)N1CCC(NC(=O)NC23CC4CC(C)(CC(C2)c2cc([N+](=O)[O-])ccc24)C3)CC1 (centres unmarked) [Example 52, 1-(1-acetylpiperidin-4-yl)-3-(9-methyl-2-nitro-5,6,8,9,10,11-hexahydro-7H-5,9:7,11-dimethanobenzo[9]annulen-7-yl)urea] |
| 10 to 50 | CC(=O)N1CCC(NC(=O)NC23CC4CC(C)(CC(C2)c2cc(N)ccc24)C3)CC1 (centres unmarked) [Example 53, 1-(1-acetylpiperidin-4-yl)-3-(2-amino-9-methyl-5,6,8,9,10,11-hexa-hydro-7H-5,9:7,11-dimethanobenzo[9]annulen-7-yl)urea] |
| 10 to 50 | CC(C)S(=O)(=O)N1CCC(CC(=O)NC23CC4CC(C)(CC(C2)c2ccccc24)C3)CC1 [Example 56, 2-[1-(isopropylsulfonyl)piperidin-4-yl]-N-(9-methyl-5,6,8,9,10,11-hexahydro-7H-5,9:7,11-dimethanobenzo[9]annulen-7-yl)acetamide] |
| 100 to 1000 | CC(=O)N1CCC(CC(=O)NC23CC4CC(C)(CC(C2)c2ccccc24)C3)CC1 [Example 57, 2-(1-acetylpiperidin-4-yl)-N-(9-methyl-5,6,8,9,10,11-hexahydro-7H-5,9:7,11-dimethanobenzo[9]annulen-7-yl)acetamide] |
| < 10 | CC12CC3CC(NC(=O)Nc4ccc(F)c(F)c4F)(CC(C1)c1ccccc13)C2 [Example 58, 1-(9-methyl-6,7,8,9,10,11-hexahydro-5H-5,9:7,11-dimethanobenzo[9]annulen-7-yl)-3-(2,3,4-trifluorophenyl)urea] |
| 10 to 50 | CC12CC3CC(NC(=O)Nc4ccc(F)c(F)c4F)(CC(C1)c1ccccc13)O2 [Example 59, 1-(5-methyl-1,5,6,7-tetrahydro-1,5:3,7-dimethanobenzo[e]oxonin-3(2H)-yl)-3-(2,3,4-trifluorophenyl)urea] |
| 100 to 1000 | CC12CC3CC(NC(=O)CC4CCN(Cc5ccccc5)CC4)(CC(C1)c1ccccc13)C2 [Example 60, 2-(1-benzylpiperidin-4-yl)-N-(9-methyl-5,6,8,9,10,11-hexahydro-7H-5.9:7,11-dimethanobenzo[9]annulen-7-yl)acetamide] |
| < 10 | CC(=O)c1ccc(N2CCC(NC(=O)NC34CC5CC(C)(CC(C3)c3ccccc35)C4)CC2)cc1 [Example 64, 1-(1-(4-acetylphenyl)piperidin-4-yl)-3-(9-methyl-5,6,8,9,10,11-hexahydro-7H-5,9:7,11-dimethanobenzo[9]annulen-7-yl)urea] |
| < 10 | CC12CC3CC(NC(=O)NC4CCN(C(=O)c5ccccc5F)CC4)(CC(C1)c1ccccc13)C2 [Example 66, 1-(1-(2-fluorobenzoyl)piperidin-4-yl)-3-(9-methyl-5,6,8,9,10,11-hexa-hydro-7H-5,9:7,11-dimethanobenzo[9]annulen-7-yl)urea] |
| < 10 | CC12CC3CC(NC(=O)NC4CC5CCC(C4)N5Cc4ccccc4)(CC(C1)c1ccccc13)C2 [Example 67, 1-((1R,3s,5S)-8-benzyl-8-azabicyclo[3.2.1]octan-3-yl)-3-(9-methyl-5,6,8.9.10,11-hexahydro-7H-5.9:7,11-dimethanobenzo[9]annulen-7-yl)urea] |
| < 10 | CC(=O)N1CCC(NC(=O)NC23CC4CC(C)(CC(C2)c2cc(F)ccc24)C3)CC1 (centres unmarked) [Example 68, 1-(1-acetylpiperidin-4-yl)-3-(2-fluoro-9-methyl-5,6,8,9,10,11-hexahydro-7H-5,9:7,11-dimethanobenzo[9]annulen-7-yl)urea] |
| < 10 | COc1ccc2c(c1)C1CC3(C)CC2CC(NC(=O)NC2CCN(C(C)=O)CC2)(C1)C3 (centres unmarked) [Example 69, 1-(1-acetylpiperidin-4-yl)-3-(2-methoxy-9-methyl-5,6,8,9,10,11-hexa-hydro-7H-5.9:7,11-dimethanobenzo[9]annulen-7-yl)urea] |
| < 10 | CC(=O)N1CCC(NC(=O)NC23CC4CC(C)(CC(C2)c2c(F)cccc24)C3)CC1 (centres unmarked) [Example 70, 1-(1-acetylpiperidin-4-yl)-3-(1-fluoro-9-methyl-5,6,8,9,10,11-hexahydro-7H-5,9:7,11-dimethanobenzo[9]annulen-7-yl)urea] |
| < 10 | COc1cc2c(cc1OC)C1CC3(C)CC2CC(NC(=O)NC2CCN(C(C)=O)CC2)(C1)C3 [Example 71, 1-(1-acetylpiperidin-4-yl)-3-(2,3-dimethoxy-9-methyl-5,6,8,9,10,11-hexahydro-7H-5.9:7,11-dimethanobenzo[9]annulen-7-yl)urea] |
| 10 to 50 | CC(=O)N1CCC(NC(=O)NC23CC4CC2CC(C3)c2ccccc24)CC1 [Example 72, 1-(1-acetylpiperidin-4-yl)-3-(5,8,9,10-tetrahydro-5,8:7,10-dimethano-benzo[8]annulen-7(6H)-yl)urea] |
| 100 to 1000 | COC12CC3CC(NC(=O)Nc4nc5ccccc5s4)(CC(C1)c1ccccc13)C2 [Example 73, 1-(benzo[d]thiazol-2-yl)-3-(9-methoxy-5,6,8,9,10,11-hexahydro-7H-5,9:7,11-dimethanobenzo[9]annulen-7-yl)urea] |
| < 10 | CC(=O)N1CCC(NC(=O)NC23CC4CC(F)(CC(C2)c2c(F)cccc24)C3)CC1 (centres unmarked) [Example 74, 1-(1-acetylpiperidin-4-yl)-3-(1,9-difluoro-5,6,8,9,10,11-hexahydro-7H-5,9:7,11-dimethanobenzo[9]annulen-7-yl)urea] |
